# Experimental data: US11807650B2, “NMDA receptor modulators and uses thereof” (Novartis AG, priority 2016, dated 2023)
# Molecular target: T1, human GRIN1 (transcript variant NR1-3) and GRIN2D expressed in Xenopus oocytes (Homo sapiens, UniProt O15399)
# T1 construct: GenScript (GRIN2D synthesis) SC115601; host or cells: Xenopus oocytes injected with cRNA (1 GluN1 : 2 GluN2)
# Assay: NR2D oocyte potentiation assay (two-electrode voltage clamp)
# Format: cell-based
# Conditions: 10 uM test compound; glutamate and glycine 10 μM each; holding potential −40 mV
# Description: NR2D Oocyte Potentiation Assay. Xenopus oocytes (Xenopus 1, Dexter, Mich.) were initially separated from the lobes of an ovary using surgical forceps; they were then defolliculated by constant agitation at room temperature in OR-2 buffer (82.5 mM NaCl; 2.5 mM KCl; 1 mM MgCl2; 5 mM HEPES; pH 7.4) containing 2 mg/ml collagenase Type 1 (Fisher Scientific, USA) for 1.5-2 hours. The cells were then gently aspirated with a Pasteur pipette to remove the follicular tissue; this was followed by washing three times with OR-2 to remove all traces of collagenase. The oocytes were then washed in ND-96 (96 mM NaCl, 2 mM KCl, 1.8 mM CaCl2, 1 mM MgCl2, 5 mM HEPES, 50 ng/L gentamycin, 100 units/ml penicillin and 100 μg/ml streptomycin; pH 7.6) three times and this was followed by incubation in ND-96 at room temperature with mild agitation for 15 minutes; subsequently they were stored for at least 2 hours at 16° C. before sorting and selection for injection. Oocytes selected for injection were incubated overnight in ND-96 at 16° C.
# The human GRIN1 (transcript variant NR1-3 (Origene, SKU #: SC115601, Rockville, Md.) and GRIN2D (NCBI locus NM_000836, sequence optimized and synthesized by GenScript) were linearized and transcribed using the mMessage mMachine kit (Life Technologies) and promoters SP6 (for GluN1) and T7 (for GluN2D). cRNAs were mixed together at a ratio of 1 GluN1:2 GluN2. Each oocyte was injected with 50 nL of cRNA and stored in ND96 (96 mM NaCl, 2 mM KCl, 1.8 mM CaCl2, 1 mM MgCl2, 5 mM HEPES, 50 ng/L gentamycin, 100 units/ml penicillin and 100 μg/ml streptomycin; pH 7.6) at 16° C. for 72 h prior to recording.
# Currents were recorded using a two-electrode voltage-clamp amplifier (Oocyte Clamp OC-725C; Warner Instrument Corp, Hamden, Conn.), and digitized using Digidata 1550A and pClamp (v. 10) software (Molecular Devices, Sunnyvale, Calif.). Electrodes were filled with 3 M KCl and had resistances that ranged from 0.2-1 MO. All measurements were made at a holding potential of −40 mV. Cells were continuously perfused with oocyte recording solution containing 90 mM NaCl, 1 mM KCl, 0.5 mM BaCl2, and 10 mM HEPES (Ph 7.4). Glutamate and Glycine (co-agonists) were applied at respective concentrations of 10 μM each. Co-agonists were applied until a plateau was reached, and test compounds were then added in the continued presence of co-agonists until a new plateau was reached. After the addition of the last test compound concentration, the oocyte was washed with oocyte recording buffer. Fraction of current remaining was calculated as [(current in presence of test compound−background current)/(co-agonist current−background current)] and IC50 values were computed using Prism 6.0 (Graphpad).
# T1 sequence (O15399 28-1336, other chains not shown): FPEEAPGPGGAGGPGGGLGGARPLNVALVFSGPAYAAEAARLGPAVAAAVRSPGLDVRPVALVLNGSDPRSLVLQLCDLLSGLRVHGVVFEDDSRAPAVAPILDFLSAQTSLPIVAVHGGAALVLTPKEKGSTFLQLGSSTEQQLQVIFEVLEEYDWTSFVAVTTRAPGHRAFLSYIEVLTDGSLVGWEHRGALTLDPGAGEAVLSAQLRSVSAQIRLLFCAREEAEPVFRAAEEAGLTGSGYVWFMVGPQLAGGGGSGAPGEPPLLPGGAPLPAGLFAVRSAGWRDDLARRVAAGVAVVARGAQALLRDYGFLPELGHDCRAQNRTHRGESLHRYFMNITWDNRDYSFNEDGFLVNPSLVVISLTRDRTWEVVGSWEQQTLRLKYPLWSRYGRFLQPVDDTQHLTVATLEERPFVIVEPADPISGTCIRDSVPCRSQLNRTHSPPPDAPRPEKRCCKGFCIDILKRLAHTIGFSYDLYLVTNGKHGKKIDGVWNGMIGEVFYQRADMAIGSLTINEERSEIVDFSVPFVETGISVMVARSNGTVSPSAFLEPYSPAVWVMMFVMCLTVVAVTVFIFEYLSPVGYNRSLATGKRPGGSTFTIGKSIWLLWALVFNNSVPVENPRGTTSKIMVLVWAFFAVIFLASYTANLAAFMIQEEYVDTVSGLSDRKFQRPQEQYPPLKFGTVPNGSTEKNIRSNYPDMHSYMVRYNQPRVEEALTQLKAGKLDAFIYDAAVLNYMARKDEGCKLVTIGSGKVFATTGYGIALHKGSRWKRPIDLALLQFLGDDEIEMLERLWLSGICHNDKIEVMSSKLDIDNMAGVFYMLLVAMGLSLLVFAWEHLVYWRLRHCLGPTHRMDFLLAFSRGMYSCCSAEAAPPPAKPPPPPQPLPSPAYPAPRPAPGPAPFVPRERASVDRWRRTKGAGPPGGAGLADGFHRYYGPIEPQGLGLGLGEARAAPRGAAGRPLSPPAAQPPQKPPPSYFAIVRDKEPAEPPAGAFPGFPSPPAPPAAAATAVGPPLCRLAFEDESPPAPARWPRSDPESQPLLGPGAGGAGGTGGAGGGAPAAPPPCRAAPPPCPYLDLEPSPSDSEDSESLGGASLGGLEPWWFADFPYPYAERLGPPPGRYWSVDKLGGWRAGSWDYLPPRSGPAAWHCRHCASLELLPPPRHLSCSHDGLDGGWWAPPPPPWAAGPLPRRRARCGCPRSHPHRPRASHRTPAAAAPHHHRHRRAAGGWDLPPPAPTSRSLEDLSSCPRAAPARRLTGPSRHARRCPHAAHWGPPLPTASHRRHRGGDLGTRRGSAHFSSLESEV
Structure (SMILES),activation at 10 µM [%],NR2D Oocyte % Potentiation @ 10 uM
"CCN1CSc2nc(-c3cnc(C(C)(C)C)nc3)c(C#N)c(=O)n2C1 [Example 11, 8-(2-(tert-butyl)pyrimidin-5-yl)-3-ethyl-6-oxo-3,4-dihydro-2H,6H-pyrimido[2,1-b][1,3,5]thiadiazine-7-carbonitrile]",10 to 100,
"CSc1c(-c2ccc(C(C)(C)C)cc2)nc2n(c1=O)CCCC2 [Example 25, 2-(4-(tert-butyl)phenyl)-3-(methylthio)-6,7,8,9-tetrahydro-4H-pyrido[1,2-a]pyrimidin-4-one]",< 10,
"CC(C)(C)c1ncc(-c2nc3n(c(=O)c2C#N)CC(CO)CS3)cc1F (stereo not shown) [Example 92, 8-(6-(tert-butyl)-5-fluoropyridin-3-yl)-3-(hydroxymethyl)-6-oxo-3,4-dihydro-2H,6H-pyrimido[2,1-b][1,3]thiazine-7-carbonitrile]",> 1000,
"CC(C)(C)c1ccc(-c2nc3ccccn3c(=O)c2C#N)cn1 [Example 19, 2-(6-(tert-butyl)pyridin-3-yl)-4-oxo-4H-pyrido[1,2-a]pyrimidine-3-carbonitrile]",100 to 500,
"COCOC[C@H]1CSc2nc(-c3cnc(C(C)(C)C)c(F)c3)c(C#N)c(=O)n2C1 [Example 171, (S)-8-(6-(tert-butyl)-5-fluoropyridin-3-yl)-3-((methoxymethoxy)methyl)-6-oxo-3,4-dihydro-2H,6H-pyrimido[2,1-b][1,3]thiazine-7-carbonitrile]",> 1000,
"CC1CSc2nc(-c3cnc(C(C)(C)C)c(F)c3)c(C#N)c(=N)n2C1 (stereo not shown) [Example 41, 8-(6-(tert-butyl)-5-fluoropyridin-3-yl)-6-imino-3-methyl-3,4-dihydro-2H,6H-pyrimido[2,1-b][1,3]thiazine-7-carbonitrile]",> 1000,
"CC(C)(C)c1ccc(-c2nc3n(c(=O)c2C#N)CCCC3)cc1 [Example 23, 2-(4-(tert-butyl)phenyl)-4-oxo-6,7,8,9-tetrahydro-4H-pyrido[1,2-a]pyrimidine-3-carbonitrile]",10 to 100,
"C=Cc1c(-c2ccc(C(C)(C)C)cc2)nc2n(c1=O)CCCS2 [Example 32, 8-(4-(tert-butyl)phenyl)-7-vinyl-3,4-dihydro-2H,6H-pyrimido[2,1-b][1,3]thiazin-6-one]",10 to 100,
"COC(C)(C)c1ccc(-c2nc3n(c(=O)c2C#N)CC(C)CS3)cn1 (stereo not shown) [Example 119, 8-(6-(2-methoxypropan-2-yl)pyridin-3-yl)-3-methyl-6-oxo-3,4-dihydro-2H,6H-pyrimido[2,1-b][1,3]thiazine-7-carbonitrile]",10 to 100,
"C[C@@H]1CSc2nc(-c3cnc(C(C)(C)C)nc3)c(C#N)c(=O)n2C1 [Example 74, (S)-8-(2-(tert-butyl)pyrimidin-5-yl)-3-methyl-6-oxo-3,4-dihydro-2H,6H-pyrimido[2,1-b][1,3]thiazine-7-carbonitrile]",500 to 1000,
"CC(C)(CF)c1ccc(-c2nc3n(c(=O)c2C#N)CCCS3)cn1 [Example 152, 8-(6-(1-fluoro-2-methylpropan-2-yl)pyridin-3-yl)-6-oxo-3,4-dihydro-2H,6H-pyrimido[2,1-b][1,3]thiazine-7-carbonitrile]",100 to 500,
"CSc1cc(-c2nc3n(c(=O)c2C#N)CC(C)CS3)cnc1C(C)(C)C (stereo not shown) [Example 61, 8-(6-(tert-butyl)-5-(methylthio)pyridin-3-yl)-3-methyl-6-oxo-3,4-dihydro-2H,6H-pyrimido[2,1-b][1,3]thiazine-7-carbonitrile]",> 1000,
"CC(C)(C)c1ccc(-c2nc3n(c(=O)c2C#N)C[C@@H](CF)CS3)cn1 [Example 131, (S)-8-(6-(tert-butyl)pyridin-3-yl)-3-(fluoromethyl)-6-oxo-3,4-dihydro-2H,6H-pyrimido[2,1-b][1,3]thiazine-7-carbonitrile]",> 1000,
"CC(C)(C)c1ncc(-c2nc3n(c(=O)c2C#N)C[C@@H](CF)CS3)cn1 [Example 141, (S)-8-(2-(tert-butyl)pyrimidin-5-yl)-3-(fluoromethyl)-6-oxo-3,4-dihydro-2H,6H-pyrimido[2,1-b][1,3]thiazine-7-carbonitrile]",500 to 1000,
"CC(C)(C)c1ncc(-c2nc3n(c(=N)c2C#N)CCCS3)cc1F [Example 40, 8-(6-(tert-butyl)-5-fluoropyridin-3-yl)-6-imino-3,4-dihydro-2H,6H-pyrimido[2,1-b][1,3]thiazine-7-carbonitrile]",> 1000,
"C[S+]([O-])c1c(-c2ccc(C(C)(C)C)cc2)nc2n(c1=O)CCCC2 (stereo not shown) [Example 26, 2-(4-(tert-butyl)phenyl)-3-(methylsulfinyl)-6,7,8,9-tetrahydro-4H-pyrido[1,2-a]pyrimidin-4-one]",< 10,
"CN1CSc2nc(-c3ccc(C(C)(C)C)nc3)c(C#N)c(=O)n2C1 [Example 8, 8-(6-(tert-butyl)pyridin-3-yl)-3-methyl-6-oxo-3,4-dihydro-2H,6H-pyrimido[2,1-b][1,3,5]thiadiazine-7-carbonitrile]",10 to 100,
"C[C@@H]1CSc2nc(-c3ccc(C4(C)CC4)nc3)c(C#N)c(=O)n2C1 [Example 116, (S)-3-methyl-8-(6-(1-methylcyclopropyl)pyridin-3-yl)-6-oxo-3,4-dihydro-2H,6H-pyrimido[2,1-b][1,3]thiazine-7-carbonitrile]",> 1000,
COC(C)(C)c1ccc(-c2nc3n(c(=O)c2C#N)CCCS3)cn1 [Example 120],10 to 100,
"CN1CSc2nc(-c3cnc(C(C)(C)C)nc3)c(C#N)c(=O)n2C1 [Example 10, 8-(2-(tert-butyl)pyrimidin-5-yl)-3-methyl-6-oxo-3,4-dihydro-2H,6H-pyrimido[2,1-b][1,3,5]thiadiazine-7-carbonitrile]",10 to 100,
"CC(C)(C)c1ncc(-c2nc3n(c(=O)c2C#N)C[C@@H](CO)CS3)cc1F [Example 157, (S)-8-(6-(tert-butyl)-5-fluoropyridin-3-yl)-3-(hydroxymethyl)-6-oxo-3,4-dihydro-2H,6H-pyrimido[2,1-b][1,3]thiazine-7-carbonitrile]",> 1000,
"CC1CSc2nc(-c3ccc(C45CC(C4)C5)nc3C34CC(C3)C4)c(C#N)c(=O)n2C1 (stereo not shown) [Example 150, 8-(2,6-di(bicyclo[1.1.1]pentan-1-yl)pyridin-3-yl)-3-methyl-6-oxo-3,4-dihydro-2H,6H-pyrimido[2,1-b][1,3]thiazine-7-carbonitrile]",,Inhibitor
"CC1CSc2nc(-c3ccc(C4(C)CC4)nc3)c(C#N)c(=O)n2C1 (stereo not shown) [Example 108, 3-methyl-8-(6-(1-methylcyclopropyl)pyridin-3-yl)-6-oxo-3,4-dihydro-2H,6H-pyrimido[2,1-b][1,3]thiazine-7-carbonitrile]",500 to 1000,
"CC(C)(C)c1ccc(-c2nc3ccccn3c(=O)c2C#N)cc1 [Example 18, 2-(4-(tert-butyl)phenyl)-4-oxo-4H-pyrido[1,2-a]pyrimidine-3-carbonitrile]",100 to 500,
"CC1(c2ncc(-c3cc4n(c(=O)c3C#N)CCCS4)cc2F)CC1 [Example 136, 8-[5-fluoro-6-(1-methyl-cyclopropyl)pyridin-3-yl]-6-oxo-2H,3H,4H,6H-pyrido [2,1-b][1,3] thiazine-7-carbonitrile]",> 1000,
"CC(C)(C)c1ccc(-c2nc3n(c(=O)c2C#N)C[C@H](CF)CS3)cn1 [Example 132, (R)-8-(6-(tert-butyl)pyridin-3-yl)-3-(fluoromethyl)-6-oxo-3,4-dihydro-2H,6H-pyrimido[2,1-b][1,3]thiazine-7-carbonitrile]",100 to 500,
"CC(C)(C)c1ncc(-c2nc3n(c(=O)c2C#N)CCCS3)cc1O [Example 127, 8-(6-(tert-butyl)-5-hydroxypyridin-3-yl)-6-oxo-3,4-dihydro-2H,6H-pyrimido[2,1-b][1,3]thiazine-7-carbonitrile]",> 1000,
"Cc1ccc2nc(-c3cnc(C(C)(C)C)nc3)c(C#N)c(=O)n2c1 [Example 22, 2-(2-(tert-butyl)pyrimidin-5-yl)-7-methyl-4-oxo-4H-pyrido[1,2-a]pyrimidine-3-carbonitrile]",100 to 500,
